Earlier results as cited in US7851640B2, “Catalytic enantioselective synthesis of flavanones and chromanones” (Northwestern University, priority 2008, dated 2010).

Tested on: MMP-2
Details: PCa cells treated with genistein

Structure (SMILES): O=c1c(-c2ccc(O)cc2)coc2cc(O)cc(O)c12 [genistein]
- levels of MMP-2 gene transcript and protein: decreased levels of both MMP-2 gene transcript and protein
